Experimental data taken from US20120252829A1, “TIVOZANIB AND CAPECITABINE COMBINATION THERAPY” (priority 2011, published 2012).
Read-outs that look alike come from different tables or passages of the source.

Columns and labels:
[1] = tested on: Her2-driven breast tumor (BH) model; test: tumor growth in Her2-driven breast tumor (BH) mouse model; assay type: in vivo; settings: tivozanib 5 mg/kg daily, capecitabine 300 mg/kg daily 2 weeks on, 1 week off, oral, more than 4 weeks; FIG. 1
Protocol: (§1) The Her2-driven breast tumor (BH) model used herein has the following genotype: MMTVrTTA, tetO HER2, INK4A(−/−), luciferase reporter.
When tumors reached approximately 200 mm^3, the mice were randomized into 4 groups of 10 mice each. One group received vehicle control. Each of the other 3 groups were treated with one of the two agents either administered alone or in combination. Both agents were administered orally.
Capecitabine was dosed at 300 mg/kg daily for two weeks followed by a one week break (2 weeks on, 1 week off) for more than 4 weeks.

tumor blood vessels = test: inhibition of angiogenesis in tumors; assay type: in vivo, mouse; settings: tivozanib 5 mg/kg daily 5 weeks, capecitabine 300 mg/kg daily two weeks, seven day break, FIG. 4
Protocol: An experiment was designed to evaluate the effect of the combination therapy on angiogenesis (FIG. 4). Tivozanib was dosed at 5 mg/kg daily for 5 weeks. Capecitabine was dosed at 300 mg/kg daily for two weeks, followed by a seven day break, and then an additional two weeks of capecitabine at 300 mg/kg daily.

[2] = tested on: thymidine phosphorylase (TP); test: TP induction in BH216-derived primary culture, qRT-PCR; assay type: cell-based, mouse; settings: cultured BH216 tumor cells; 0.01-1000 nM, 3 hours
[3] = tested on: thymidine phosphorylase (TP); settings: BH216 tumors; one dose at or about maximum tolerated dosage; tumors collected after 6 hours (also 24 hours for B20-4.1)
Protocol: Each of the VEGF inhibitors were administered at or about their respective maximum tolerated dosages.

VEGF receptor 3 = VEGF receptor 3 (Homo sapiens, UniProt P35916); settings: cited from earlier work
Sequence of VEGF receptor 3 (P35916 25-1363): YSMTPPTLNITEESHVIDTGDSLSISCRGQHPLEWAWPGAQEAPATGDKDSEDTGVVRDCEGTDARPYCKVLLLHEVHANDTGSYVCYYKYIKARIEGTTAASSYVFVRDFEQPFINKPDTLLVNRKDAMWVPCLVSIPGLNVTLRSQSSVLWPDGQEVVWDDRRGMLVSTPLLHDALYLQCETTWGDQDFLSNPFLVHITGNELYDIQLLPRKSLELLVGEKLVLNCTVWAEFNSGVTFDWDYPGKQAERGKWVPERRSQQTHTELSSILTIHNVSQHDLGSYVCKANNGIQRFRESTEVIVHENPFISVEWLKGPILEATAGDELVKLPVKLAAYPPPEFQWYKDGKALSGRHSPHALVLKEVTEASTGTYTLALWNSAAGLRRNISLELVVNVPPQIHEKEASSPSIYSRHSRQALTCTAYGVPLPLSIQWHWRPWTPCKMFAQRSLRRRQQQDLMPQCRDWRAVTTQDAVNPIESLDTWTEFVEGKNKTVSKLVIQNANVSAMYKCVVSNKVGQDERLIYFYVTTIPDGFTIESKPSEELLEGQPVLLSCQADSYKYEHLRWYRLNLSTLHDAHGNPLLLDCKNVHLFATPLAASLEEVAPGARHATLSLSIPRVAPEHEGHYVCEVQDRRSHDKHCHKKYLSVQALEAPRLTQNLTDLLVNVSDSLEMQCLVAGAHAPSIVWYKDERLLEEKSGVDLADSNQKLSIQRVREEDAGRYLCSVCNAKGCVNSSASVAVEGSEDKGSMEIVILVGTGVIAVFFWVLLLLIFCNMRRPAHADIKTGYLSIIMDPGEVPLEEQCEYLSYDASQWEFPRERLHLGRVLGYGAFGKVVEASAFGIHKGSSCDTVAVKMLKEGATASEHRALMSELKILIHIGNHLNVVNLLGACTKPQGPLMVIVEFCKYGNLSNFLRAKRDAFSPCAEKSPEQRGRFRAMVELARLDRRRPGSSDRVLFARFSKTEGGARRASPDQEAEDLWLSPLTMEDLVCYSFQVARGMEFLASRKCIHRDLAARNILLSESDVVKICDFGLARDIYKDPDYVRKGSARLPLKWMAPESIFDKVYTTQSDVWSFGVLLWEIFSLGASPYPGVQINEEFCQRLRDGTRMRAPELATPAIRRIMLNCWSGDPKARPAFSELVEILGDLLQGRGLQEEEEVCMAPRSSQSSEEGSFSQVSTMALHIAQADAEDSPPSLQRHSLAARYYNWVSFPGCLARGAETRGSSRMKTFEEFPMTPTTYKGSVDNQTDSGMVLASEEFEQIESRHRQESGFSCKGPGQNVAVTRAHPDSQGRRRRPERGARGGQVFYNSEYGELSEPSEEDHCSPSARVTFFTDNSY

tumor = settings: preclinical models; cited from earlier work
[4] = 272-patient Phase 2 clinical trial; cited from earlier work
[5] = cited from earlier work
[6] = cited from earlier work; remark: listed apart in the source
[7] = tested on: thymidine phosphorylase (TP); test: TP expression in murine breast tumors after tivozanib, qRT-PCR
Protocol: Murine breast tumors (BH216, BH225, BH229 and BH281) were introduced subcutaneously into nude mice. For each tumor type, when tumors reached approximately 250 mm^3, the mice were randomized into five groups, with three mice in each group. One group received vehicle (0.5% methyl-cellulose) and the remaining groups each received one dose of 5 mg/kg tivozanib. The mice were sacrificed and tumors collected at 0.5, 2, 6 and 16 hours post-dose. RNA was extracted from the tumors and TP expression was analyzed with qRT-PCR.

[8] = tested on: Her2-driven breast tumor (BH) model; test: tumor cell proliferation by Ki67 immunohistochemistry; assay type: in vivo, mouse
Protocol: as §1
To determine the mechanism of action of the combination therapy, capecitabine was administered alone and in combination with tivozanib, over two dosage cycles (FIG. 2A). Capecitabine was dosed at 300 mg/kg daily for two weeks, followed by a seven day break, and then an additional two weeks of capecitabine at 300 mg/kg daily. Tivozanib was dosed at 5 mg/kg daily for 5 weeks.

[9] = oral administration of capecitabine; human xenograft tumors in mice; cited from earlier work

COc1cc2nccc(Oc3ccc(NC(=O)Nc4cc(C)on4)c(Cl)c3)c2cc1OC [tivozanib, N-{2-chloro-4-[(6,7-dimethoxy-4-quinolyl)oxy]-phenyl}-N′-(5-methyl-3-isoxazolyl)urea]
tumor growth [1]: only moderate reduction in tumor growth | angiogenesis (tumor blood vessels): only a reduction in vessel size but not microvessel density | TP induction [2]: TP induction was observed | TP induction [3]: significant TP induction | inhibitory activity (VEGF receptor 3): picomolar | antitumor activity (tumor): exhibits antitumor activity | clinical trial results [4]: positive results | most common side effects ([5]; Phase 1, Phase 2 and Phase 3 clinical trials): hypertension and dysphonia | time for serum levels to reach steady state ([6]; chronic dosing): 2-3 weeks | half-life ([6]; human body): 91.2 to 113 h | up-regulation of TP ([7]; BH216 tumors, 6 hours after tivozanib 5 mg/kg): approximately 8 fold | TP expression ([7]; BH216 tumors, 16 hours post-dose, tivozanib 5 mg/kg): significant elevation in TP expression | TP up-regulation ([7]; BH229 tumor, tivozanib 5 mg/kg): no TP up-regulation | TP up-regulation ([7]; BH281 tumor, tivozanib 5 mg/kg): no TP up-regulation

O=c1[nH]cc(F)c(=O)[nH]1 [fluorouracil, 5-fluoro-2,4-(1H,3H)-pyrimidinedione]
area under the curve (AUC) of fluorouracil, higher at day 14 than day 1 ([6]; after capecitabine, day 14 vs day 1): 35% | half-life of primary metabolite of capecitabine ([6]; relative to parent compound): same approximate half-life of the parent compound

CCCCCOC(=O)Nc1nc(=O)n([C@@H]2O[C@H](C)[C@@H](O)[C@H]2O)cc1F [capecitabine, 5′-deoxy-5-fluoro-N-[(pentyloxy)carbonyl]-cytidine]
tumor growth [1]: only moderate reduction in tumor growth | tumor cell proliferation ([8]; capecitabine 300 mg/kg daily, first two weeks): reduced tumor cell proliferation | tumor cell proliferation between capecitabine cycles ([8]; during break periods): tumor cell proliferation rebound | angiogenesis (tumor blood vessels): no change in the angiogenesis profile | side effects ([5]; capecitabine, can be severe): hand-and-foot syndrome (pain, swelling or redness of your hands or feet), diarrhea, nausea, vomiting, dehydration, sores in the mouth and throat, stomach area pain, tiredness or weakness, fever, and joint and muscle pain | elimination half-life ([6]; human body): approximately ¾ | 5-FU AUC in tumors versus plasma [9]: 100-200 fold
